Measured values reported in US20260166031A1, “Methods of Treating Lipedema and Lymphatic Disease of the Subcutaneous Tissue” (Celltaxis, LLC, priority 2023, published 2026).
≈ marks a conversion by molar mass, not a printed value. Entries after “also recorded” stand apart in the source; their conditions may differ. Like-named read-outs stand apart in the source and are kept apart here.

How the values were obtained:
[1] = target: T1, LTA4H aminopeptidase activity (Homo sapiens, UniProt P09960)
T1 sequence (P09960 1-611): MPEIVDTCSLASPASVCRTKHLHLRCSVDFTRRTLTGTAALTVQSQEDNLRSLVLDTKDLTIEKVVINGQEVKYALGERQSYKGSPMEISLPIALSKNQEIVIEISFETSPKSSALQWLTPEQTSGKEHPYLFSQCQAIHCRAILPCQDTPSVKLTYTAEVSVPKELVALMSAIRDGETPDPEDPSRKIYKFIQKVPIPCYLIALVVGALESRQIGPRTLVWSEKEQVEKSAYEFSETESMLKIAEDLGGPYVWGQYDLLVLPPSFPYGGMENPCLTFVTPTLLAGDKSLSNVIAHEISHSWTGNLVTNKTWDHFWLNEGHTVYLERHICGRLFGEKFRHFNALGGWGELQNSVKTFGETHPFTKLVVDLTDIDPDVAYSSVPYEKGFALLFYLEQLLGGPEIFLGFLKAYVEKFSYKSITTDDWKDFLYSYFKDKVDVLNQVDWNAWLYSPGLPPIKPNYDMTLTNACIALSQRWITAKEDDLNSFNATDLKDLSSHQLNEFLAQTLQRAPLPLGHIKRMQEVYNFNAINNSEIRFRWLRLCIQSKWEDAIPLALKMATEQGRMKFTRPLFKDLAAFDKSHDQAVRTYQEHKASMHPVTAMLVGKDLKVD

[2] = target: T2, LTA4H epoxide hydrolase activity (Homo sapiens, UniProt P09960); conditions: Table 3; read-out: Epoxide Hydrolase IC50 ± SEM; cited from earlier work
T2 sequence (P09960 1-611): T1 sequence (P09960 1-611)

LTA4H = target: T3, LTA4H (Homo sapiens, UniProt P09960); conditions: cited from earlier work
T3 sequence (P09960 1-611): T1 sequence (P09960 1-611)

lymphedema patients [3] = experiment: Expanded access program, LymVAS quality of life; assay type: in vivo, human; conditions: as early as 3 months, maintained at 6 months; 11 EAP patients
Protocol: Quality of life indicators were also evaluated in the 11 EAP patients using LymVAS, a tool to interrogate lymphedema patient experience and is based on experience and practice from prior lymphedema trials. LymVAS uses a sliding visual analog scale, wherein patients move the slider along a line to indicate the degree of response to a question. LymVAS has two segments: 1.

[4] = system: LTB4 production in human whole blood; experiment: Human whole blood ex vivo LTB4 production; assay type: cell-based; conditions: human whole blood tested ex vivo; read-out: approximate IC50, LTB4 production
Protocol: The hydrolase-homogeneous time resolved fluorescence assay is a two-step assay that measures the hydrolysis of LTA4 to LTB4 by analyzing the amount of LTB4 produced. The first step involves the enzymatic conversion of LTA4 to LTB4 and the second step involves the quantification of the LTB4 formed with a homogeneous time resolved fluorescence assay. […] In the whole blood assay, the inhibitor compounds are tested for their ability to inhibit LTB4 release upon stimulation with calcium ionophore and the LTB4 levels in supernatants are measured by ELISA.

[5] = system: sputum white blood cells and neutrophils of CF patients; experiment: Sputum cell counts in CF patients
LTB4 production = experiment: Pharmacodynamic studies in humans, LTB4 production/inhibition; assay type: in vivo, human
[6] = system: upper limb lymphedema patient; experiment: HEAL Phase 2 trial case report, dermal ultrasound of forearm; assay type: in vivo, human; conditions: Stage II lymphedema subject
Source text: We present the early ultrasonographic responses of a participant who has completed 3 months of a total 6-month exposure. The primary endpoint for this trial involves quantitative analysis of dermal ultrasound skin changes.
These preliminary results lend great promise to the HEAL trial.

adult patients with CF = conditions: 48 weeks of treatment; Phase II adult CF patients; cited from earlier work
lymphedema patients [7] = experiment: Expanded access program, dermal ultrasound; assay type: in vivo, human
[8] = system: affected limb of lymphedema patients; experiment: Expanded access program, bioimpedance of affected limb; assay type: in vivo, human; conditions: 6 months vs baseline; p<0.01; higher bioimpedance = lower water content
Source text: Bioimpedance is a measure of water content, and a higher bioimpedance corresponds to a lower water content.
FIGS. 5A, 5B and 5C are graphs presenting the same data as change in bioimpedance (as compared to baseline) over time.

[9] = system: affected limb of lymphedema patients; experiment: Expanded access program, limb volume; assay type: in vivo, human; conditions: 6 months; mean for 6 patients; p<0.03
Source text: At 6 months, a 6.7% reduction in limb volume was observed (mean for 6 patients; p<0.03).

[10] = system: affected (lymphedematous) limb of lymphedema patients; experiment: Expanded access program, skin thickness of affected limb by caliper; assay type: in vivo, human; conditions: p<0.0001
Protocol: Skin thickness was measured by caliper.
At 6 months, a 43% reduction in skin thickness was observed (mean for 10 patients; p<0.0001).

neutrophil swarming = experiment: Neutrophil swarming in vitro in response to factors in human CF sputum; conditions: acebilustat 48 ng/mL, factors present in human CF sputum
[11] = Table 2; read-out: Aminopeptidase IC50 ± SEM; cited from earlier work
[12] = Table 3; read-out: Aminopeptidase IC50 ± SEM; cited from earlier work
[13] = 3 months of treatment vs baseline
[14] = 3 months of treatment vs baseline, listed as Acebilustat
[15] = patient with right leg lymphedema, at 6 months

## CC(=O)Oc1ccc(/C=C/c2cc(OC(C)=O)cc(OC(C)=O)c2)cc1 [Cmpd 4]
[1]; Table 1; read-out: Aminopeptidase IC50 ± SEM; cited from earlier work
  IC50: > 100 µM

## COc1cc(O)cc(CCc2ccc(O)cc2)c1 [Cmpd 6]
[1]; [11]
  IC50: > 100 µM

## CCOc1cc(O)cc(CCc2ccc(O)cc2)c1 [Cmpd 7]
[1]; [11]
  IC50: > 100 µM

## COc1cc(O)cc(CCc2cccc(O)c2)c1 [Cmpd 8]
[1]; [11]
  IC50: > 100 µM

## COc1cc(O)cc(CCc2ccccc2O)c1 [Cmpd 9]
[1]; [11]
  IC50: > 100 µM

## O=C(Cc1ccc(O)cc1)c1ccc(O)cc1O [Cmpd 10]
[1]; [12]
  IC50: > 100 µM

## O=c1c(-c2ccc(O)cc2)coc2cc(O)ccc12 [Cmpd 11]
[1]; read-out: Aminopeptidase IC50 ± SEM; Table 3; cited from earlier work
  IC50: > 100 µM

## O=c1c(-c2ccc(O)cc2)coc2c(O)c(O)ccc12 [Cmpd 12]
[2]
  IC50: 7.3 ± 0.8 µM

## O=c1c(-c2ccccc2)coc2cc(O)ccc12 [Cmpd 13]
[1]; [12]
  IC50: > 100 µM

## CC(C)C[C@H](NC(=O)[C@@H](O)[C@H](N)Cc1ccccc1)C(=O)O [Ubenimex]
LTA4H
  potency at inhibiting LTB4 generation versus PGP degradation (selectivity class): non-selective LTA4H inhibitor

## O=C(O)c1ccc(CN2C[C@@H]3C[C@H]2CN3Cc2ccc(Oc3ccc(-c4ncco4)cc3)cc2)cc1 [acebilustat, 4-{[(1S,4S)-5-({4-[4-oxazol-2-yl-phenoxy]phenyl}methyl)-2,5-diazabicyclo[2.2.1]heptan-2-yl]methyl}benzoic acid]
Lymphedema patients [3]
  LymVAS Total Change Score: significant improvement
  LymVAS quality of life Total Status Score: significant improvement
[4]
  IC50: ~0.0308 µg/mL (≈ 0.064 µM)
[5]; 100 mg acebilustat group
  decrease of sputum white blood cells from Baseline: 60%
[5]; 100 mg group
  decrease of sputum neutrophils: 65%
[5]; all treated patients (doses of 50 to 100 mg)
  decrease of sputum neutrophils: 34%
[5]; all treated subjects (doses of 50 or 100 mg)
  decrease of sputum white blood cells from Baseline: 31%
LTB4 production; 50 mg dose, human pharmacodynamic studies
  inhibition at 50 mg: ≥ 63%
LTB4 production; 100 mg dose, human pharmacodynamic studies
  inhibition at 100 mg: ≥ 74%
LTB4 production; 150 mg dose, human pharmacodynamic studies
  inhibition at 150 mg: ≥ 82%
LTB4 production; 200 mg, human pharmacodynamic studies
  LTB4 inhibition: at least 85%
LTB4 production; Homo sapiens, pharmacodynamic studies in humans, read-out: estimated in vivo EC50, inhibition of LTB4 production
  EC50: 0.093 µg/mL (≈ 0.193 µM)
[6]; 3 months of treatment
  demarcation of dermo-epidermal junction and subcutaneous fascial bands: enhanced demarcation
[6]; [13]
  dermal echogenicity by ultrasound: reduced echogenicity
  dermal thickness by ultrasound: reduced dermal thickness
  subcutaneous tissue echogenicity: decreased
[6]; [14]
  dermal thickness by ultrasound: reduced
  subcutaneous tissue echogenicity: reduced
Adult patients with CF
  rate of pulmonary exacerbations: showed promise in reducing the rate of pulmonary exacerbations
  risk of infection: no evidence of increased risk of infection
Lymphedema patients [7]; different patient (FIG. 7), after 6 months of treatment
  reduction in subcutaneous thickness: 15.2%
Lymphedema patients [7]; [15]
  reduction of dermal thickness: 3.7%
  reduction of subdermal thickness: over 20.2%
  reduction of total thickness: 17.6%
[8]
  bioimpedance (water content) of affected limb: significantly lower water content; also recorded: significantly higher bioimpedance
[9]
  reduction in limb volume: 6.7%
[10]; 3 months after acebilustat treatment vs baseline, caliper
  skin thickness of affected limb: dramatically reduced; also recorded: significant decrease
[10]; 6 months vs baseline, mean for 10 patients
  reduction in skin thickness: 43%
Neutrophil swarming
  reduction of neutrophil swarming: 80%
